Laboratory results from US6358998B1, “Body fat-reducing agent comprising dioxabicyclo[3.3.0] octane derivative as active ingredient” (Rinoru Oil Mills Co., LTD, priority 1999, dated 2002).

Assays:
fat tissues of rats = assay: Example 1: four-week feeding of experimental diet to rats, organ and fat tissue weights; type: in vivo, rat; settings: Sprague-Dawley male rats, four weeks of feeding, compared with the control group
From the text: Sprague-Dawley male rats of four weeks of age were acclimatized, and then divided into three groups (each group consisting of 8 rats), a 1.0% linoleic acid group (a control group), 0.2% sesamin group, and 0.2% sesamin+1.0% CLA group. The experimental diet shown in Table 1 and water were then freely fed to these three groups of rats. […] Four weeks after the initiation of feeding, the 8 rats constituting each group were scarified, and the organs were taken out.

perfused liver = assay: Example 2: liver perfusion experiment, triglyceride secretion; type: in vivo, rat; settings: Sprague-Dawley male rats, three weeks of feeding, compared with the control group
From the text: Sprague-Dawley male rats of four weeks of age were acclimatized for 5 to 11 days, and then divided into three groups (each group consisting of 5 rats), a 1.0% linoleic acid group (a control group), 0.2% sesamin group, and 0.2% sesamin+1.0% CLA group. In the experiment, CE-2 (lipid content 4.5%) manufactured by CLEA JAPAN INC. with 1.5% of a soybean oil being added thereto was used as a basic diet, and the experimental diet was freely fed to the rats. […] Three weeks after the initiation of feeding, a liver perfusion experiment was carried out.

c1cc2c(cc1[C@H]1OC[C@H]3[C@@H]1CO[C@@H]3c1ccc3c(c1)OCO3)OCO2 [Sesamin, sesamin]
reduced: weight of fat tissues around epididymis (fat tissues of rats) | weight of fat tissues around kidney (fat tissues of rats) | amount of triglyceride secreted from the perfused liver (perfused liver)
